According to patent publication EP4342530A1, “SORTILIN MODULATORS” (Insusense ApS, priority 2022, dated 2024):
Where “and” joins values, the source holds several entries; their conditions need not be identical. Equal values may be shown once.

Assays:
in vitro [1] = assay type: in vitro ADME; conditions: mouse, plasma, pH 7.4
Protocol: (§1) Plasma protein binding and brain homogenate binding for study compounds in mouse, dog, and rat by rapid equilibrium dialysis
(§2) In practice, unbound fractions in plasma and brain tissue were assessed using rapid equilibrium dialysis in vitro. Separately a pharmacokinetic study was run in vivo whereby a dose of the compound of interest was given at T=0 hours and at subsequent timepoints (eg 0.5, 1 and 4 hours) plasma and separately brain samples were analysed for total concentration of the compound of interest. These total concentrations could then be adjusted with the unbound fraction to give the unbound concentrations in the plasma and brain.
(§3) The test compounds were incubated in plasma and brain homogenate from the relevant species at 37 °C in RED device with inserts (8K MWCO, Thermo scientific) for 4 hours at 5 µM in triplicates. 350 µL of 150 mM phosphate buffered saline (PBS, pH 7.4) was used as the receiver side solutions. […] After 10-minute centrifugation at 13 200 rpm, the sample supernatants were analysed with an LC-MS/MS, to obtain the unbound fraction of the test compound (Fub). The unbound fraction was calculated from the peak area ratios obtained for each matrix: Fub = CPBS /Cplasma; [formula] where CPBS and Cplasma are the analyte concentrations in PBS (receiver) and plasma (donor), respectively. […]

in vitro [2] = assay type: in vitro ADME; conditions: mouse, brain homogenate, pH 7.4
Protocol: as §1, §2, §3

in vivo = conditions: male, CD1 (ICR), mouse
Protocol: (§4) The compound is administered to the animal in a suitable vehicle at T=0 hours. At 0.5 hours post administration plasma and separately brain are removed, prepared and analysed for total compound concentration.
(§5) Temperature: 45 °C Injection Volume: 1.5 µl for brain, 4 µl for plasma Ion Source: ESI+, SRM detection
(§6) The unbound partition coefficient (Kpuu) was determined as a ratio between the free compound concentrations in plasma and brain: Kpuu = (Cub,brain)/(Cub,plasma) [formula]
(§7) Where Cu,brain = unbound concentration in brain (C × Fub, brain); wherein • C = concentration at steady state; and • Cub,plasma = unbound concentration in plasma (C × Fub).

[3] = Blood-brain-barrier permeability in mice after IV administration; conditions: 3 mg/kg intravenously, 0.5 hours after dosing
Protocol: as §4, §5, §6, §7

## Cc1cccc(NC(=O)c2ccc(C(F)(F)F)cc2C(=O)O)n1 [Comparative Example 1]
In vitro [1]
  fraction unbound at 4 h, 5 µM: 0.068
In vitro [2]
  fraction unbound at 4 h, 5 µM: 0.273
In vivo
  Kp uu at 0.5 h: < 0.1
In vivo; 3 mg/kg
  Kp at 0.5 h: < 0.01
  concentration at 0.5 h: 3090 ng/mL and 5 ng/g
[3]
  Brain to plasma ratio %: <1%
